In patent EP2112152A1, “Dihydropteridinones as Plk Inhibitors” (GPC Biotech AG, priority 2008, dated 2009):

How the values were obtained:
[1] = tested on: Abl, Akt1, Aur A, c-Kit, c-Raf, Cdk1/CycB, Chk1, FGFR3, Flt3, Fyn, IGF1-R, INSR, Lyn, MAPK-ERK1, p38a, PAK4, PKCalpha, Ret, ROCK2, RSK 1, c-Src, TIE2, and …; assay: Selectivity panel (Proteros), 23 other kinases; type: biochemical; conditions: tested at 1 mM in triplicates; each of the 23 other kinases
Description: Selected compound of the present invention were tested in a standard selectivity panel including Plk1 and 23 other kinases (Proteros biostructures GmbH, Martinsried/Munich, Germany), under conditions of non-disclosure, non-dissemination and non-use.
In brief, compounds 1, 13, 14, and 25 (see Table 1) were tested at 1 mM in triplicates against Plk1 as well as against Abl, Akt1, Aur A, c-Kit, c-Raf, Cdk1/CycB, Chk1, FGFR3, Flt3, Fyn, IGF1-R, INSR, Lyn, MAPK-ERK1, p38a, PAK4, PKCalpha, Ret, ROCK2, RSK 1, c-Src, TIE2, and VEGF-R2.

[2] = tested on: SK-MEL-5; assay: SRB cell proliferation assay, SK-MEL-5; type: cell-based; conditions: Homo sapiens, 18-Cell Line Panel, melanoma
Description: (§1) Cells were exposed to the test compounds at various concentrations appropriate to determine an IC50 for 72 hours. Cell proliferation was measured using the SRB assay according to Shekan et al (J Natl Cancer Inst (1990) 82, 1107-112) in order to estimate the IC50 values shown in Table 3. Briefly, cells were plated in 96 well dishes 24 hours prior to compound addition at the densities specified in Table 5.1. The assay was terminated with the addition of cold TCA to a final concentration of 10% after growth medium has been removed and the plates were incubated over night at 4°C. The plates were then washed 5 times with water and 100µl of a Sulforhodamine B solution (4%) was added to each well. The plates were then incubated for 10 minutes at room temperature before removal of unbound dye by washing with 1% acetic acid. The bound dye was solubilised with 10 mM Trizma base and the absorbance read at OD520.
(§2) Table 8.1: 18-Cell Line Panel

[3] = tested on: COLO 205; assay: SRB cell proliferation assay, COLO 205; type: cell-based; conditions: Homo sapiens, 18-Cell Line Panel, colon
Description: as §1, §2

[4] = molecular target: Plk1 (Homo sapiens, UniProt P53350); assay: Cellular Plk1 kinase activity: nucleophosmin (B23) Ser4 phosphorylation in HCT116 cells (MSD electrochemiluminescence); type: cell-based; parameters: host or cells: HCT116; conditions: 100 ng/ml nocodazole, 4 hours after compound addition, read-out: Biochemical IC50 Nucleophosmin assay
Summary of the method: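 HCT116 cells arrested with 100 ng/ml nocodazole for 20 h, then compound for 4 h before lysis. Nucleophosmin Ser4 phosphorylation quantified by MSD electrochemiluminescence with cross-reactive anti-phospho-Mek1/2 antibody; % inhibition relative to cells without nocodazole, IC50 derived.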

Sequence of Plk1 (P53350 whole entry, species assumed): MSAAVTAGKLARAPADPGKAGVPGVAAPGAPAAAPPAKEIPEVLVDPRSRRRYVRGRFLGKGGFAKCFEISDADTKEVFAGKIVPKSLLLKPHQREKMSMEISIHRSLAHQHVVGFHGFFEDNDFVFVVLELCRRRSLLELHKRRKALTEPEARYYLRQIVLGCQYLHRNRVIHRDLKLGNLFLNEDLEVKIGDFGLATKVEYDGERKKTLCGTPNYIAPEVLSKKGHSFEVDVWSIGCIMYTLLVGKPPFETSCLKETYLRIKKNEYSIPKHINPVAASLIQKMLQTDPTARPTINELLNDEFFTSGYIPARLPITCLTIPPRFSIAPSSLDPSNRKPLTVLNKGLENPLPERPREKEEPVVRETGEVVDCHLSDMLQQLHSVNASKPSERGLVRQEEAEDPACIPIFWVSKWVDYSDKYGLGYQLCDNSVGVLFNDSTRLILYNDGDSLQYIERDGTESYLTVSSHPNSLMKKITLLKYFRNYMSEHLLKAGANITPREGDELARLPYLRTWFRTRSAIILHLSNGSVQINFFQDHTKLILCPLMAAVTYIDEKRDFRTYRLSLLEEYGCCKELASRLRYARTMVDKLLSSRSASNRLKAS

Compound | all other kinases were inhibited [1] | IC50 [2] | IC50 [3] | IC50 [4]
CCC1C(=O)N(C)c2cnc(Nc3ccc(C(=O)N[C@H]4CC[C@H](N5CCN(CC6CC6)CC5)CC4)cc3OC)nc2N1N(C)C (relative stereo) [Compound 13, N-[trans-4-(4-Cyclopropylmethyl-piperazin-1-yl)-cyclohexyl]-4-(8-dimethylamino-7-ethyl-5-methyl-6-oxo-5,6,7,8-tetrahydro-pteridin-2-ylamino)-3-methoxy-benzamide] | less than 10% | < 1000 nM | < 1000 nM | < 100 nM
CCC1C(=O)N(C)c2cnc(Nc3ccc(C(=O)NC4CCN(C)CC4)cc3OC)nc2N1N(C)C (racemic) [Compound 1, 4-(8-Dimethylamino-7-ethyl-5-methyl-6-oxo-5,6,7,8-tetrahydro-pteridin-2-ylamino)-3-methoxy-N-(1-methyl-piperidin-4-yl)-benzamide] | less than 10% | < 1000 nM | < 1000 nM | < 100 nM
